# Source: ChEMBL document CHEMBL5625197, “The mystery of titan hunter: Rationalized striking of the MAPK pathway via Newly synthesized 6-Indolylpyridone-3-Carbonitrile derivatives” (Eur J Med Chem, 2023)
# pIC50: −log10 of the molar value.
# Assays:
# [1] = tested on: HCT-116; test: cells; assay type: functional; settings: Homo sapiens, HCT-116, 96 h, time 4 day, read-out: GI
# Description: Growth inhibition of human HCT-116 cells at 10 uM incubated for 4 days by MTT assay relative to control
# [2] = tested on: HOP-92; test: cells; assay type: functional; settings: Homo sapiens, HOP-92, 96 h, time 4 day, read-out: GI
# Description: Growth inhibition of human HOP-92 cells at 10 uM incubated for 4 days by MTT assay relative to control
# [3] = tested on: SR; test: cells; assay type: functional; settings: Homo sapiens, 96 h, time 4 day, read-out: GI
# Description: Growth inhibition of human SR cells at 10 uM incubated for 4 days by MTT assay relative to control
# [4] = tested on: RXF 393; test: cells; assay type: functional; settings: Homo sapiens, RXF 393, 96 h, time 4 day, read-out: GI
# Description: Growth inhibition of human RXF 393 cells at 10 uM incubated for 4 days by MTT assay relative to control
# [5] = target: Serine/threonine-protein kinase B-raf (Homo sapiens, UniProt P15056, V600E); test: Inhibition of B-RAF V600E mutant (unknown origin)
# [6] = tested on: HOP-92; test: Inhibition of cell migration in human HOP-92 cells assessed as fold decrease in cell count incubated for 15 to 20 mins by crystal violet staining based trans-well assay; assay type: functional; settings: time 15-20 min
# [7] = tested on: HOP-92; test: Induction of cell cycle arrest in human HOP-92 cells assessed as accumulation of cells at G0/G1 phase (reference value: 54.83 %); assay type: functional
# [8] = tested on: HOP-92; test: Induction of cell cycle arrest in human HOP-92 cells assessed as accumulation of cells at S phase (reference value: 29.57 %); assay type: functional
# [9] = tested on: HOP-92; test: Inhibition of cell invasion in human HOP-92 cells incubated for 15 to 20 mins by crystal violet staining based trans-well assay relative to control; assay type: functional; settings: time 15-20 min
# [10] = tested on: HOP-92; test: Induction of apoptosis in human HOP-92 cells assessed as fold change in Bcl-2 gene expression by RT-PCR analysis; assay type: functional
# [11] = Cytotoxicity against human HEK293 cells assessed as cell growth inhibition incubated for 4 days by MTT assay
# [12] = tested on: HOP-92; test: Induction of apoptosis in human HOP-92 cells assessed as PARP1 gene expression level by RT-PCR analysis relative to control; assay type: functional
# [13] = target: Epidermal growth factor receptor (Homo sapiens, UniProt P00533); test: Inhibition of wild type EGFR (unknown origin)
# [14] = tested on: SR; test: Cytotoxicity against human SR cells assessed as cell growth inhibition incubated for 4 days by MTT assay; assay type: functional; settings: 96 h, time 4 day
# [15] = tested on: HOP-92; test: Induction of apoptosis in human HOP-92 cells assessed as early apoptotic rate by Annexin V/ PI staining based flow cytometry (reference value: 0.42 %); assay type: functional
# [16] = tested on: HOP-92; test: Induction of apoptosis in human HOP-92 cells assessed as fold change in p53 gene expression by RT-PCR analysis; assay type: functional
# [17] = target: Serine/threonine-protein kinase B-raf (Homo sapiens, UniProt P15056); test: Inhibition of wild type B-RAF (unknown origin)
# [18] = target: Epidermal growth factor receptor (Homo sapiens, UniProt P00533, T790M); test: Inhibition of EGFR T790M mutant (unknown origin)
# [19] = tested on: HOP-92; test: Induction of cell cycle arrest in human HOP-92 cells assessed as cell debris (reference value: 2.18 %); assay type: functional
# [20] = Cytotoxicity against human PCS-800-011 cells assessed as cell growth inhibition incubated for 4 days by MTT assay
# [21] = tested on: HOP-92; test: Inhibition of cell migration in human HOP-92 cells incubated for 15 to 20 mins by crystal violet staining based trans-well assay relative to control; assay type: functional; settings: time 15-20 min
# [22] = tested on: HOP-92; test: Induction of cell cycle arrest in human HOP-92 cells assessed as cell aggregation (reference value: 1.77 %); assay type: functional
# [23] = tested on: HCT-116; test: Cytotoxicity against human HCT-116 cells assessed as cell growth inhibition incubated for 4 days by MTT assay; assay type: functional; settings: HCT-116, 96 h, time 4 day
# [24] = tested on: HOP-92; test: Induction of apoptosis in human HOP-92 cells assessed as necrosis rate by Annexin V/ PI staining based flow cytometry (reference value: 1.6 %); assay type: functional
# [25] = tested on: RXF 393; test: Cytotoxicity against human RXF 393 cells assessed as cell growth inhibition incubated for 4 days by MTT assay; assay type: functional; settings: RXF 393, 96 h, time 4 day
# [26] = Selectivity index, ratio of GI50 for cytotoxicity against human HEK293 cells to GI50 for cytotoxicity against human RXF 393 cells
# [27] = tested on: HOP-92; test: Induction of apoptosis in human HOP-92 cells assessed as fold change in ratio of Bax/Bcl-2 gene expression by RT-PCR analysis; assay type: functional
# [28] = Selectivity index, ratio of GI50 for cytotoxicity against human PCS-800-011 cells to GI50 for cytotoxicity against human SR cells; assay type: toxicity, cell-based; settings: PCS-800-011 cells versus SR cells, read-out: RatioGI50
# [29] = target: Cyclin-dependent kinase 6 (Homo sapiens, UniProt Q00534); test: Inhibition of CDK6 (unknown origin)
# [30] = tested on: HOP-92; test: Induction of apoptosis in human HOP-92 cells assessed as fold change in caspase-9 gene expression by RT-PCR analysis; assay type: functional
# [31] = target: Cyclin-dependent kinase 4 (Homo sapiens, UniProt P11802); test: Inhibition of CDK4 (unknown origin)
# [32] = tested on: HOP-92; test: Induction of apoptosis in human HOP-92 cells assessed as fold change in caspase-3 gene expression by RT-PCR analysis; assay type: functional
# [33] = tested on: HOP-92; test: Induction of apoptosis in human HOP-92 cells assessed as total apoptotic rate by Annexin V/ PI staining based flow cytometry (reference value: 2.28 %); assay type: functional
# [34] = tested on: HOP-92; test: Cytotoxicity against human HOP-92 cells assessed as cell growth inhibition incubated for 4 days by MTT assay; assay type: functional; settings: HOP-92, 96 h, time 4 day
# [35] = Cytotoxicity against human PCS-800-011 cells assessed as fold change in cell growth inhibition incubated for 4 days by MTT assay; assay type: toxicity, cell-based; settings: pcs-800-011, 96 h, time 4 day
# [36] = tested on: HOP-92; test: Inhibition of colony formation in human HOP-92 cells incubated for 24 hrs by crystal violet staining based assay relative to control; assay type: functional
# [37] = target: Hepatocyte growth factor receptor (Homo sapiens, UniProt P08581); test: Inhibition of c-Met (unknown origin)
# [38] = tested on: HOP-92; test: Induction of apoptosis in human HOP-92 cells assessed as fold change in Bax gene expression by RT-PCR analysis; assay type: functional
# [39] = Cytotoxicity against human FHC cells assessed as cell growth inhibition incubated for 4 days by MTT assay
# [40] = Selectivity index, ratio of GI50 for cytotoxicity against human MRC5 cells to GI50 for cytotoxicity against human HOP-92 cells
# [41] = tested on: HOP-92; test: Induction of apoptosis in human HOP-92 cells assessed as fold change in PARP1 gene expression by RT-PCR analysis; assay type: functional
# [42] = tested on: HOP-92; test: Induction of apoptosis in human HOP-92 cells assessed as late apoptotic rate by Annexin V/ PI staining based flow cytometry (reference value: 0.26 %); assay type: functional
# [43] = tested on: HOP-92; test: Induction of apoptosis in human HOP-92 cells assessed as fold change in TNFR1 gene expression by RT-PCR analysis; assay type: functional
# [44] = tested on: HOP-92; test: Induction of cell cycle arrest in human HOP-92 cells assessed as accumulation of cells at G2/M phase (reference value: 15.6 %); assay type: functional
# [45] = tested on: HOP-92; test: Induction of apoptosis in human HOP-92 cells assessed as fold change in caspase-8 gene expression by RT-PCR analysis; assay type: functional
# [46] = Selectivity index, ratio of GI50 for cytotoxicity against human FHC cells to GI50 for cytotoxicity against human HCT-116 cells; assay type: toxicity, cell-based; settings: FHC cells versus HCT-116 cells, read-out: RatioGI50
# [47] = Cytotoxicity against human MRC5 cells assessed as cell growth inhibition incubated for 4 days by MTT assay
smiles,measurement,setting,value
N#Cc1c(-c2cccc([N+](=O)[O-])c2)cc(-c2c[nH]c3ccccc23)[nH]c1=O,inhibition of growth at 10 µM,[1],6.36%
same,inhibition of growth at 10 µM,[2],9.93%
same,inhibition of growth at 10 µM,[3],18.1%
same,inhibition of growth at 10 µM,[4],16.9%
N#Cc1c(-c2ccccc2[N+](=O)[O-])cc(-c2c[nH]c3ccccc23)[nH]c1=O,inhibition of growth at 10 µM,[1],59.5%
same,inhibition of growth at 10 µM,[2],68.5%
same,inhibition of growth at 10 µM,[3],69%
same,inhibition of growth at 10 µM,[4],64.8%
N#Cc1c(-c2cccc(Cl)c2)cc(-c2c[nH]c3ccccc23)[nH]c1=O,inhibition of growth at 10 µM,[1],51.1%
same,inhibition of growth at 10 µM,[2],38.6%
same,inhibition of growth at 10 µM,[3],71.9%
same,inhibition of growth at 10 µM,[4],67.5%
N#Cc1c(-c2ccc(Cl)cc2Cl)cc(-c2c[nH]c3ccccc23)[nH]c1=O,pIC50,[5],7.08
same,fold change (FC),[6],2.6
same,Activity,[7],59.18%
same,Activity,[8],34.11%
same,inhibition (INH),[9],49.99%
same,fold change (FC),[10],0.18
same,GI50 at 96 h,[11],22.4 µM
same,Activity,[12],20%
same,pIC50,[13],6.55
same,GI50,[14],2.77 µM
same,inhibition of growth at 10 µM,[1],82.8%
same,Activity,[15],24.18%
same,fold change (FC),[16],5.97
same,pIC50,[17],6.95
same,pIC50,[18],7.16
same,Activity,[19],2.12%
same,GI50 at 96 h,[20],49.7 µM
same,inhibition (INH),[21],61.59%
same,Activity,[22],1.88%
same,GI50,[23],2.53 µM
same,Activity,[24],7.62%
same,GI50,[25],3.12 µM
same,inhibition of growth at 10 µM,[2],79.8%
same,RatioGI50,[26],7.18
same,inhibition of growth at 10 µM,[3],74.7%
same,fold change (FC),[27],30.5
same,selectivity ratio,[28],18
same,pIC50,[29],6.74
same,fold change (FC),[30],6.75
same,pIC50,[31],7.02
same,fold change (FC),[32],7.93
same,Activity,[33],46.71%
same,GI50,[34],0.75 µM
same,fold change (FC),[35],2.3
same,inhibition (INH),[36],61.6%
same,pIC50,[37],6.69
same,fold change (FC),[38],5.49
same,GI50 at 96 h,[39],26.8 µM
same,RatioGI50,[40],37.87
same,fold change (FC),[41],0.23
same,Activity,[42],14.91%
same,inhibition of growth at 10 µM,[4],58.4%
same,fold change (FC),[43],0.27
same,Activity,[44],6.71%
same,fold change (FC),[45],2.99
same,selectivity ratio,[46],10.6
same,GI50 at 96 h,[47],28.5 µM
N#Cc1c(-c2cccnc2)cc(-c2c[nH]c3ccccc23)[nH]c1=O,inhibition of growth at 10 µM,[1],9.94%
same,inhibition of growth at 10 µM,[2],13%
same,inhibition of growth at 10 µM,[3],13.2%
same,inhibition of growth at 10 µM,[4],-0.69%
N#Cc1c(-c2cccc(Cl)c2Cl)cc(-c2c[nH]c3ccccc23)[nH]c1=O,GI50 at 96 h,[11],61 µM
same,GI50,[14],22.3 µM
same,inhibition of growth at 10 µM,[1],81.7%
same,GI50 at 96 h,[20],83.4 µM
same,GI50,[23],8.12 µM
same,GI50,[25],16.1 µM
same,inhibition of growth at 10 µM,[2],77.8%
same,RatioGI50,[26],3.8
same,inhibition of growth at 10 µM,[3],57.6%
same,selectivity ratio,[28],3.74
same,GI50,[34],15.4 µM
same,fold change (FC),[35],4
same,GI50 at 96 h,[39],65.7 µM
same,RatioGI50,[40],4.62
same,inhibition of growth at 10 µM,[4],63.2%
same,selectivity ratio,[46],8.09
same,GI50 at 96 h,[47],71.3 µM
COc1cc(-c2cc(-c3c[nH]c4ccccc34)[nH]c(=O)c2C#N)ccc1O,inhibition of growth at 10 µM,[1],64.4%
same,inhibition of growth at 10 µM,[2],53.5%
same,inhibition of growth at 10 µM,[3],52.1%
same,inhibition of growth at 10 µM,[4],65%
